{"source": "patent US20160000750A1", "about": "“COMBINATION OF EGCG OR METHYLATED EGCG AND A PDE INHIBITOR” (KYUSHU UNIVERSITY, NATIONAL UNIVERSITY CORPORATION, priority 2010, published 2016)", "key": {"TLR 4": {"test_system": "TLR 4", "experiment": "TLR4 expression in RAW 264.7 by Western blotting", "type": "cell-based, mouse", "settings": "vardenafil 5 μM, EGCG 10 μM added after 3 hours, 24 hours, untreated = 100", "method": "(§1) A mouse macrophage cell line, RAW 264.7, was seeded in a 5-mL dish at 1×10^5 cells/mL and was pre-cultured in a DMEM medium supplemented with 1% FCS for 24 hours. Subsequently, vardenafil was added thereto at a concentration of 5 μM. After 3 hours, EGCG was added thereto at a concentration of 0 μM or 10 μM. After 24 hours, the cells were collected, and the expressions of Toll-like receptor (TLR) 2 and TLR 4 were measured by Western blotting."}, "[1]": {"test_system": "Toll-like receptor (TLR) 2", "experiment": "TLR2 expression in RAW 264.7 by Western blotting", "type": "cell-based, mouse", "settings": "vardenafil 5 μM, EGCG 10 μM added after 3 hours, 24 hours, untreated = 100", "method": "as §1"}}}
{"smiles": "CCCc1nc(C)c2c(=O)[nH]c(-c3cc(S(=O)(=O)N4CCN(CC)CC4)ccc3OCC)nn12", "note": "[vardenafil]", "values": [{"measurement": "TLR4 expression level(%)", "setting": "TLR 4", "value": 112, "unit": "%"}, {"measurement": "TLR2 expression level(%)", "setting": "[1]", "value": 112, "unit": "%"}]}
